# Laboratory results reported in US20230414638A1, “S[…] COMPOUNDS AS AMPK ACTIVATOR AND USES THEREOF” (SOCIETE DES PRODUITS NESTLE S.A., priority 2020, published 2023).
# “Also recorded” adds a separate entry of the source.
# What was measured:
# AMPK β1 WT = experiment: pACC HTRF assay in AMPKβ1/β2 double knockout U-2 OS cells stably expressing β1 WT; type: cell-based, human; conditions: AMPKβ1β2 double knockout cells stably expressing β1 WT, varying concentrations, 30 mins at 37 C
# Text: (§1) A MPKβ1/β2 double knockout U-2 OS Flp-In™ T-Rex™ cell lines were generated by Horizon Discovery (Cambridge, UK). Cells were genotyped and analysed by western blotting to confirm that there was a complete knockout of AMPKβ1/β2. We took these AMPKβ1/β2 double knockout cells, and re-introduced the expression of human β1 wild-type (WT) or a β1 Serine 108 to alanine mutation (S108A). This was achieved using the Flp-In™ system (Invitrogen) present in this cell line and stable cells expressing β1 WT or a β1 S108A mutant were generated according to the manufacturers' protocols. Re-expression of the β1 subunit was confirmed by western blot analysis.
# (§2) Cells stably expressing β1 WT or a β1 S108A mutant were treated with varying concentrations of Compound 1 and subjected to the pACC HTRF (Cisbio) assay to determine the level of phosphorylation of the AMPK substrate, ACC, in cell lysates, as in example 1.
# We took AMPKβ1/β2 double knockout cells, and re-introduced the expression of human […] or β2 WT isoforms. […] Cells stably expressing β1 WT or β2 were treated with varying concentrations of compound 1 and subjected to the pACC HTRF (Cisbio) assay to determine the level of phosphorylation of the AMPK substrate, ACC, in cell lysates, as in example 1. […]
# [1] = system: β2-containing AMPK complexes; experiment: pACC HTRF assay in AMPKβ1/β2 double knockout U-2 OS cells stably expressing β2 WT; type: cell-based, human; conditions: AMPKβ1β2 double knockout cells stably expressing β2 WT, varying concentrations, 30 mins at 37 C
# Method: We took AMPKβ1/β2 double knockout cells, and re-introduced the expression of human […] or β2 WT isoforms. […] Cells stably expressing β1 WT or β2 were treated with varying concentrations of compound 1 and subjected to the pACC HTRF (Cisbio) assay to determine the level of phosphorylation of the AMPK substrate, ACC, in cell lysates, as in example 1. […] This activation profile is characteristic of activators that bind to the ADaM site and consistent with previous studies showing that ADaM-site activators have poorer activation of β2-containing complexes in vitro and in cells.
# [2] = system: ADaM-binding site AMPK mutant (β1 S108A); experiment: pACC HTRF assay in AMPKβ1/β2 double knockout U-2 OS cells stably expressing β1 S108A mutant; type: cell-based, human; conditions: AMPKβ1β2 double knockout cells stably expressing β1 S108A mutant, varying concentrations, 30 mins at 37 C
# Text: as §1, §2
# [3] = system: primary mouse hepatocytes; experiment: Lipogenesis ([1-14C]-acetate incorporation into fatty acids) in primary hepatocytes; type: cell-based; conditions: varying concentrations, 1 h at 37 C
# Method: Hepatocyte isolation: The liver was first perfused with 50 ml perfusion buffer (Krebs-Hepes buffer with […] EDTA), followed with 50 ml collagenase A buffer (Krebs-Hepes buffer with 5 mM CaCl2) and 0.5 mg/ml collagenase). After passage through a 100 μm mesh, the cell solution was washed several times with cold media and finally the cell culture pellet was resuspended in culture medium (medium 199 (M199)+GlutaMAX, 100 U/ml penicillin G, and 100 μg/ml streptomycin, 0.1% (wt/vol) BSA, 10% FCS, 10 nM insulin, 200 nM triiodothyronine and 500 nM dexamethasone). Hepatocytes were left to attach (3-4 h) and cultured overnight in M199 supplemented with antibiotics and 100 nM dexamethasone. Cells were used for experiments the following morning.
# For lipogenesis measurements in primary hepatocytes, cells were seeded at 600 K cells per well in a 6-well plate overnight. Media was replaced with fresh M199 media alone for 2 hours prior to incubation with varying concentrations of compound 1 for 1 h at 37 C, in the presence of [1-14C]-acetate. The incorporation of [14C] into fatty acids was determined in the lower organic layer after separation from the aqueous phase.
# AMPK = experiment: pACC HTRF assay (Cisbio) in U-2 OS Flp-In T-REx cells; type: cell-based; conditions: varying concentrations, 30 mins at 37 C
# Method: U-2 OS Flp-In T-REx cells were seeded at 50 K in a 96-well plate and left overnight at 37 C in DMEM GlutaMAX (Thermo Fisher Scientific) supplemented with 10% (vol/vol) FBS and 100 U/ml penicillin G, and 100 μg/ml streptomycin. Cells were treated for 30 mins with varying concentrations of Compound 1 in media lacking FBS and then cells were lysed in 50 μl of Cisbio lysis buffer #1 supplemented with blocking solution as per the manufacturer's protocol (Cisbio). Compound 1 is 2,4-dihydroxy-3-[(1R,6R)-3-methyl-6-prop-1-en-2-ylcyclohex-2-en-1-yl]-6-pentylbenzoic acid, also known as Cannabidiolic acid, CAS number: 1244-58-2.
# Cells were lysed for 30 mins at room temperature before 16 μl of lysate was incubated with 4 μl of the HTRF antibodies (1:40 dilution of the acceptor and donor (p)ACC antibodies, as per the manufacturers protocol). Lysates were incubated overnight with the antibodies before 665 nm/620 nm ratio was determined using a MolecularDevices i3 plate reader (with a HTRF cartridge add-on).
smiles,measurement,setting,value
"C=C(C)[C@@H]1CCC(C)=C[C@H]1c1c(O)cc(CCCCC)c(C(=O)O)c1O [Compound 1, 2,4-dihydroxy-3-[(1R,6R)-3-methyl-6-prop-1-en-2-ylcyclohex-2-en-1-yl]-6-pentylbenzoic acid]",Phosphorylation of ACC (fold increase in activation),AMPK β1 WT,able to dose-dependently increase pACC
same,Phosphorylation of ACC (fold increase in activation),[1],impaired activation of AMPK; also recorded: impaired ability of compound 1 to increase pACC
same,Phosphorylation of ACC (fold increase in activation),[2],did not activate AMPK; also recorded: not able to increase pACC
same,Lipogenesis (percentage compared to the no treatment control),[3],dose-dependent inhibition of lipogenesis; also recorded: able to inhibit lipogenesis in a dose-dependent manner
same,Phosphorylation of ACC (fold increase in activation),AMPK,"increased the phosphorylation of the AMPK substrate, acetyl-CoA carboxylase (ACC); also recorded: increases the phosphorylation of the AMPK substrate, ACC, in a dose-dependent manner"
